Experimental findings from PubChem BioAssay (NCI) are described below.

Values joined by “and” are separate entries in the source; they are usually repeats but may differ in a detail not shown here. Identical values can stand only once.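 Briefly, cells in 96-well plates were exposed to five compound concentrations for 48 h, and endpoints were estimated by linear interpolation. Abbreviation: GI50, concentration required for 50% inhibition of growth. TGI marks complete inhibition of growth.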 A value given as a limit tells only on which side of the number the result lay.

Among the test systems are SR leukemia; DU-145 prostate; HL-60(TB) leukemia; CCRF-CEM leukemia; BT-549 breast; NCI-H23 lung; SK-MEL-28 melanoma; KM12 colon; A549 NSCLC; K-562 leukemia.
Common to all, as to assay: NCI-60 cell line screen, 48 h

In the case of `Cc1c(CN2CCN(C(=O)[C@H](C)O)CC2)sc2c(N3CCOCC3)nc(-c3cnc(N)nc3)nc12`, the GI50 with SR leukemia was 0.365 µM and 0.262 µM; in the test with DU-145 prostate, 0.424 µM and 0.244 µM; with HL-60(TB) leukemia, 0.146 µM and 0.192 µM; in the test with CCRF-CEM leukemia it was 1.11 µM and 0.322 µM; with BT-549 breast, 0.146 µM and 0.065 µM; in the test with NCI-H23 lung, 0.389 µM and 0.181 µM. In addition, the GI50 with SK-MEL-28 melanoma is 0.247 µM and 0.138 µM; in the test with KM12 colon, 0.755 µM and 0.393 µM; with A549 NSCLC it was 0.439 µM and 0.207 µM; in the test with K-562 leukemia, 1.5 µM and 2.39 µM. Moreover, the TGI in the test with SR leukemia was > 10 µM and 3.88 µM; in the test on DU-145 prostate, over 100 µM; with HL-60(TB) leukemia it was > 10 µM and 6.81 µM; with CCRF-CEM leukemia, over 100 µM; in the test on BT-549 breast, 3.11 µM and 0.57 µM; with NCI-H23 lung, over 100 µM. Further, the TGI is 5.43 µM and 0.708 µM in the test with SK-MEL-28 melanoma; > 10 µM and 15.2 µM in the test with KM12 colon; 9.75 µM and 7.57 µM with A549 NSCLC; over 100 µM with K-562 leukemia.

As to `O=C1c2c(c(=O)[nH]c3ccccc23)[C@H](c2ccccc2)[C@@H]2CCCN12`, the GI50 in the test with SR leukemia is 2.61 µM; with DU-145 prostate, 3.38 µM; with HL-60(TB) leukemia, 1.98 µM; in the test with CCRF-CEM leukemia it was 4.61 µM; in the test on BT-549 breast, 4.84 µM; in the test with NCI-H23 lung, 2.77 µM. The GI50 was 3.69 µM with SK-MEL-28 melanoma, 3.08 µM in the test on KM12 colon, 20.2 µM with A549 NSCLC and 5.63 µM with K-562 leukemia. For the same compound, the TGI in the test with SR leukemia is 36.7 µM; in the test on DU-145 prostate, 27.5 µM; with HL-60(TB) leukemia, 8.29 µM; in the test with CCRF-CEM leukemia it was over 100 µM; in the test with BT-549 breast it was 55.2 µM; in the test on NCI-H23 lung, 37.9 µM. Further, the TGI is 32.9 µM in the test on SK-MEL-28 melanoma, 13.6 µM in the test with KM12 colon, over 100 µM with A549 NSCLC and over 100 µM with K-562 leukemia.

For the compound `CC1=C(C#N)C23C(=O)N(c4ccccc4)C(=O)C2=C(O)C=CC3(O)N1Cc1ccc(Cl)cc1Cl` (stereo not given), the GI50 was 1.85 µM in the test with SR leukemia; 2.7 µM in the test with DU-145 prostate; 3.18 µM with HL-60(TB) leukemia; 1.59 µM in the test on CCRF-CEM leukemia; 1.46 µM with BT-549 breast; 3.33 µM in the test on NCI-H23 lung. Further, the GI50 was 1.53 µM in the test on SK-MEL-28 melanoma, 3.27 µM with KM12 colon, 12.2 µM in the test on A549 NSCLC and 3.76 µM with K-562 leukemia. The TGI is 4.49 µM with SR leukemia; 11.6 µM in the test on DU-145 prostate; 6.82 µM in the test on HL-60(TB) leukemia; 4.28 µM in the test with CCRF-CEM leukemia; 3.17 µM in the test on BT-549 breast; 15.9 µM with NCI-H23 lung. Further, the TGI with SK-MEL-28 melanoma was 3.4 µM; in the test on KM12 colon, 12 µM; in the test with A549 NSCLC it was 28.5 µM; with K-562 leukemia, 9.26 µM.

Consider `CCN1CCN(CCNc2nccc(-c3c(-c4ccc(F)c(O)c4)nc4occn34)n2)S1(=O)=O`, for which the GI50 is 7.46 µM with SR leukemia; 3.75 µM in the test with DU-145 prostate; 4.16 µM in the test on HL-60(TB) leukemia; 2.2 µM in the test with CCRF-CEM leukemia; 2.97 µM with BT-549 breast; 4.12 µM in the test with NCI-H23 lung. In addition, the GI50 in the test on SK-MEL-28 melanoma is 5.68 µM; with KM12 colon it was 3.72 µM; with A549 NSCLC, 4.58 µM; with K-562 leukemia, 3.67 µM. The TGI with SR leukemia, in the test on DU-145 prostate, in the test on HL-60(TB) leukemia, in the test on CCRF-CEM leukemia, with BT-549 breast and with NCI-H23 lung was over 100 µM throughout. Further, the TGI with SK-MEL-28 melanoma, in the test with KM12 colon, in the test with A549 NSCLC and in the test on K-562 leukemia was over 100 µM each time.

With `CCCc1nn(C)c2c(=O)[nH]c(-c3cc(S(=O)(=O)N4CCN(C)CC4)ccc3OCC)nc12`, the GI50 in the test with SR leukemia, in the test on DU-145 prostate, with HL-60(TB) leukemia, with CCRF-CEM leukemia, in the test with BT-549 breast and in the test on NCI-H23 lung was over 100 µM each time. Besides, the GI50 in the test on SK-MEL-28 melanoma, in the test with KM12 colon, with A549 NSCLC and in the test with K-562 leukemia was over 100 µM throughout. Besides, the TGI in the test with SR leukemia, in the test with DU-145 prostate, in the test with HL-60(TB) leukemia, in the test with CCRF-CEM leukemia, in the test on BT-549 breast and in the test with NCI-H23 lung was over 100 µM throughout. Further, the TGI with SK-MEL-28 melanoma, in the test with KM12 colon, in the test on A549 NSCLC and with K-562 leukemia was over 100 µM in each case.

As to `NCCCCC(NC(=O)C(N)CCCN=C(N)N)C(=O)NC(CCCCN)C(=O)NC(CCCN=C(N)N)C(=O)NC(CCCN=C(N)N)C(=O)NC(CCC(N)=O)C(=O)NC(CCCN=C(N)N)C(=O)NC(CCCN=C(N)N)C(=O)NC(CCCN=C(N)N)C(=O)NCC(=O)NCC(=O)O` (stereo not given), the GI50 in the test on SR leukemia is over 50 µM; with DU-145 prostate, over 50 µM; with HL-60(TB) leukemia, over 50 µM; with CCRF-CEM leukemia it was 1.53 µM; in the test on BT-549 breast, over 50 µM; in the test with NCI-H23 lung it was over 50 µM. For the same compound, the GI50 in the test on SK-MEL-28 melanoma, with KM12 colon, in the test with A549 NSCLC and in the test on K-562 leukemia was over 50 µM throughout. For the same compound, the TGI is over 50 µM with SR leukemia; over 50 µM in the test on DU-145 prostate; over 50 µM in the test with HL-60(TB) leukemia; 8.52 µM in the test on CCRF-CEM leukemia; over 50 µM with BT-549 breast; over 50 µM in the test on NCI-H23 lung. Further, the TGI in the test on SK-MEL-28 melanoma, in the test on KM12 colon, with A549 NSCLC and with K-562 leukemia was over 50 µM in each case.

Regarding `Cc1cc2c(F)c(Oc3ncnc(Nc4ccc(N5C[C@@H](C)N[C@@H](C)C5)cc4)c3C#N)cc(F)c2[nH]1`, the GI50 is 1.63 µM in the test with SR leukemia; 3.31 µM with DU-145 prostate; 1.93 µM in the test with HL-60(TB) leukemia; 1.64 µM in the test with CCRF-CEM leukemia; 0.816 µM in the test with BT-549 breast; 2.44 µM in the test on NCI-H23 lung. The GI50 with SK-MEL-28 melanoma is 1.96 µM; with KM12 colon, 2.55 µM; in the test with A549 NSCLC, 2.84 µM; with K-562 leukemia, 1.62 µM. In addition, the TGI in the test with SR leukemia is 4.35 µM; in the test with DU-145 prostate, 11.1 µM; in the test with HL-60(TB) leukemia it was 3.95 µM; in the test with CCRF-CEM leukemia, 9.16 µM; in the test on BT-549 breast it was 2.38 µM; with NCI-H23 lung, 11.3 µM. The TGI in the test on SK-MEL-28 melanoma stood at 3.7 µM; in the test with KM12 colon, 7.3 µM; with A549 NSCLC it was 8.02 µM; in the test on K-562 leukemia, 3.83 µM.
